From paper PMC8041276 (ACS Chemical Neuroscience, 2021)

Legend:
5-HT6R = 5-HT6R (Homo sapiens, UniProt P50406); assay: [3H]-LSD radioligand binding assay, HEK293 cells stably expressing human 5-HT6R; set-up: expressed in transfected cells; settings: mean of three independent experiments
Description: Final compounds were evaluated in the [^3H]-LSD binding assay using HEK293 cells with stable expression of human 5-HT6R. […] Because the fluorine atom might affect the affinity at target protein as well as physicochemical and pharmacokinetic properties of compound,[22] fluorine substitution at the 2-phenyl ring was applied. […] The analysis of the binding mode of 18 and 28 (Figure 2A) confirmed that the 2-phenyl moiety is placed in the hydrophobic cavity between transmembrane domains (TMs) 4–6.
All experiments were carried out according to the previously published procedures.[41]−[43] HEK293 cells stably expressing human 5-HT1A, 5-HT6, 5-HT7b, and D2L receptors (prepared with the use of Lipofectamine 2000) or CHO-K1 cells with plasmid containing the sequence coding for the human serotonin 5-HT2A receptor (PerkinElmer) were maintained at 37 °C in a humidified atmosphere containing 5% CO2 and grown in Dulbecco’s modified Eagle’s medium containing 10% dialyzed fetal bovine serum and 500 μg/mL G418 sulfate. For membrane preparation, cells were cultured in 150 cm^2 flasks, grown to 90% confluence, washed twice with prewarmed to 37 °C phosphate buffered saline (PBS), and centrifuged (200g) in PBS containing 0.1 mM EDTA and 1 mM dithiothreitol. Prior to membrane preparation, pellets were stored at −80 °C. Cell pellets were thawed and homogenized in 10 volumes of assay buffer using an Ultra Turrax tissue homogenizer and centrifuged twice at 35 000g for 15 min at 4 °C, with incubation for 15 min at 37 °C between the centrifugations. The composition of the assay buffers was experimentally selected to achieve the maximum signal window (more details in Supporting Information). All assays were carried out in a total volume of 200 μL in 96-well plates for 1 h at 37 °C except 5-HT1AR and 5-HT2AR which were incubated at room temperature and 27 °C, respectively. The process of equilibration was terminated by rapid filtration through Unifilter plates with a 96-well cell harvester, and radioactivity retained on the filters was quantified on a Microbeta plate reader (PerkinElmer, USA). For displacement studies the assay samples contained the following as radioligands (PerkinElmer, USA): 2.5 nM [^3H]-8-OH-DPAT (135.2 Ci/mmol) for 5-HT1AR; 1 nM [^3H]-ketanserin (53.4 Ci/mmol) for 5-HT2AR; 2 nM [^3H]-LSD (83.6 Ci/mmol) for 5-HT6R; 0.8 nM [^3H]-5-CT (39.2 Ci/mmol) for 5-HT7R or 2.5 nM [^3H]-raclopride (76.0 Ci/mmol) for D2LR. Nonspecific binding was defined in the presence of 10 μM 5-HT in 5-HT1AR and 5-HT7R binding experiments, whereas 20 μM mianserin, 10 μM methiothepine, and 10 μM haloperidol were used in 5-HT2AR, 5-HT6R, and D2LR assays, respectively. Each compound was tested in triplicate at seven concentrations (10^–10–10^–4 M). The inhibition constants (Ki) were calculated from the Cheng–Prusoff equation.[44]

CYP2D6 = biological target: T1, CYP2D6 (Homo sapiens, UniProt P10635); assay: CYP2D6 P450-Glo luminescent inhibition assay; format: in vitro ADME; settings: 0.01–25 μM
T1 construct: purchased Promega (Madison, WI, USA)
T1 sequence (P10635 whole entry): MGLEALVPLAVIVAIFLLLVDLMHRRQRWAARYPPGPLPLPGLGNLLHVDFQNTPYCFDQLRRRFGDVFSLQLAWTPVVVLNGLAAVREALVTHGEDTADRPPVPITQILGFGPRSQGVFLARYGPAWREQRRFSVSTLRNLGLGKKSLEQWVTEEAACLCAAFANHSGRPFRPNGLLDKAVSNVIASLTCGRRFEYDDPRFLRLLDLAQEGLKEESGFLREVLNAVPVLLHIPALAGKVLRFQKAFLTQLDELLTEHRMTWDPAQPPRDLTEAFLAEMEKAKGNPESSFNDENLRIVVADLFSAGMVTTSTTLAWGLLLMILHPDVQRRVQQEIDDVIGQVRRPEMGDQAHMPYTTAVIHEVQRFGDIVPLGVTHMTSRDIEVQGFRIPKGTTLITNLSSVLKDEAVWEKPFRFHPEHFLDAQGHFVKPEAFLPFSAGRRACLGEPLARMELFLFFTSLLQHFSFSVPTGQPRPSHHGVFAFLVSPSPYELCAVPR
From the text: The luminescent CYP3A4 P450-Glo and CYP2D6 P450-Glo assays and protocols were provided by Promega (Madison, WI, USA). The P450-Glo systems based on the conversion proluciferins, derivatives of beetle luciferin [(4S)-4,5-dihydro-2-(6′-hydroxy-2′-benzothiazolyl)-4-thiazolecarboxylic acid] into D-luciferin were catalyzed by respective CYP isoform. D-Luciferin is formed and detected in a second reaction with the luciferin detection reagent (LDR). The amount of light produced in the second reaction is proportional to CYP activity.
The stock solutions (10 mM) of the references ketoconazole (KE), quinidine (QD), and examined compounds were performed in DMSO. The 4× concentrated dilutions were prepared before the assays. […]
The CYPs, proluciferin, and examined compounds (25 μL/well) were preincubated first for 5 min, and next the NADPH regeneration system was added (25 μL) to start the reaction. […] The control reactions for measuring the 100% of CYPs activity and minus-CYP negative control reactions for measure background luminescence were also prepared. […] Finally, LDR was added (50 μL/well), and after 20 min of incubation in room temperature the luminescence signal was measured with a microplate reader (EnSpire, PerkinElmer) in luminescence mode. […] The IC50 values and were calculated using GraphPad Prism 5 software.

HepG2 cells = assay: MTT assay, hepatotoxicity in HepG2 cells; format: cell-based, human; settings: HepG2, 24 h
Description: Human hepatocellular carcinoma cells (HepG2) were cultured using standard procedures (protocol from ATCC). Cells were cultured in Eagle’s minimum essential medium (EMEM) in flasks with an area of 25 cm^2 (Falcon), supplemented with 10% of fetal bovine serum (FBS, Life Technologies) with the addition of 100 IU/mL penicillin (Sigma-Aldrich) and 100 μg/mL streptomycin (Sigma-Aldrich) and incubated at 37 °C in a humidified atmosphere with 5% CO2.
The MTT assay was used to determine the viability of HepG2 cells incubated in the presence of compound 27 and DOX. Cells were seeded at a density of 2 × 10^4 in 96-well plates. […] Following cell exposure to each compound 10 μL of MTT reagent (Sigma-Aldrich) was added to each well. After 4 h of incubation (37 °C, 5% CO2) the culture medium was aspirated and formazan crystals were dissolved in 100 μL of DMSO. Then, optical density (OD) at 570 nm was determined on a plate reader (Spectra Max iD3, Molecular Devices). Each individual experiment was repeated at least three times.

Sequence of 5-HT6R (P50406 whole entry, the tested form may be a part): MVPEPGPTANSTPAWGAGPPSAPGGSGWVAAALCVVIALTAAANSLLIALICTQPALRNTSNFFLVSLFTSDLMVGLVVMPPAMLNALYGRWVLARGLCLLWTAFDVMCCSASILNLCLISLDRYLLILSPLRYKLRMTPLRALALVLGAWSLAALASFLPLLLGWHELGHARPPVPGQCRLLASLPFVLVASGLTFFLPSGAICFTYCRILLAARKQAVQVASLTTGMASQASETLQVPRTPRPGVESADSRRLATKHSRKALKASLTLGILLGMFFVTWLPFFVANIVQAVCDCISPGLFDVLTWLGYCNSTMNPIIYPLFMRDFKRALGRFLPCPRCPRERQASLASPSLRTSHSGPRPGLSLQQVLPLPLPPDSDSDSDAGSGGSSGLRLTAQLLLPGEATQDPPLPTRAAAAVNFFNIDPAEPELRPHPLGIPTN

O=C(N[C@H]1CCNC1)c1ccn(S(=O)(=O)c2cccc(Cl)c2)c1-c1ccc(F)cc1 [Compound 28, (S)-2-(4-Fluorophenyl)-1-[(3-chlorophenyl)sulfonyl]-N-(pyrrolidin-3-yl)-1H-pyrrole-3-carboxamide] was tested. Which Ki (5-HT6R) did it give?
The Ki was 22 nM.

How did the Ki (5-HT6R) turn out when O=C(N[C@@H]1CCNC1)c1ccn(S(=O)(=O)c2cccc(Cl)c2)c1-c1ccc(F)cc1 [Compound 27, (R)-2-(4-Fluorophenyl)-1-[(3-chlorophenyl)sulfonyl]-N-(pyrrolidin-3-yl)-1H-pyrrole-3-carboxamide] was run?
The Ki was 30 nM.

And the “influence on CYP2D6 activity” value (CYP2D6)?
Its value is “did not significantly influence”.

What about the “metabolic activity of cells (MTT test)” value (HepG2 cells; 0.1–25 μM) of the same molecule?
Its value is “did not impair the metabolic activity of cells”.

And the IC50 (HepG2 cells; Homo sapiens, printed in Figure 5A, read-out: IC50, cellular viability (MTT))?
Its IC50 is 32300 nM.
